Laboratory results from ChEMBL document CHEMBL1641539 (Bioorg Med Chem Lett, 2011).

Key:
[1] = target: Serine/threonine-protein kinase SIK1 (Homo sapiens) (UniProt P57059); assay: Inhibition of human SIK at 10 uM after 60 mins by TR-FRET assay; conditions: values are per cent of control
[2] = target: Cyclin-dependent kinase 5/CDK5 activator 1 (Homo sapiens) (UniProt Q00535+Q15078); assay: Inhibition of human CDK5/p35 at 10 uM after 60 mins by TR-FRET assay; values are per cent of control
[3] = target: Serine/threonine-protein kinase Sgk2 (Homo sapiens) (UniProt Q9HBY8); assay: Inhibition of human SGK2 at 10 uM after 60 mins by TR-FRET assay; values are per cent of control
[4] = test system: Platelet-derived growth factor receptor alpha (Homo sapiens), P16234 [V561D]; assay: Inhibition of human PDGFRalpha V561D mutant at 10 uM after 60 mins by TR-FRET assay; values are per cent of control
[5] = target: Dual specificity mitogen-activated protein kinase kinase 6 (Homo sapiens) (UniProt P52564); assay: Inhibition of human MKK6 at 10 uM after 60 mins by TR-FRET assay; values are per cent of control
[6] = target: Tyrosine-protein kinase ZAP-70 (Homo sapiens) (UniProt P43403); assay: Inhibition of human ZAP-70 at 10 uM after 60 mins by TR-FRET assay; values are per cent of control
[7] = target: Tyrosine-protein kinase Lck (Homo sapiens) (UniProt P06239); assay: Inhibition of human Lck at 10 uM after 60 mins by TR-FRET assay; conditions: values are per cent of control
[8] = test system: Fibroblast growth factor receptor 1 (Homo sapiens), P11362 [V561M]; assay: Inhibition of human FGFR1 V561M mutant at 10 uM after 60 mins by TR-FRET assay; values are per cent of control
[9] = target: Macrophage colony-stimulating factor 1 receptor (Homo sapiens) (UniProt P07333); assay: Inhibition of human Fms at 10 uM after 60 mins by TR-FRET assay; values are per cent of control
[10] = target: Cyclin-dependent kinase 7/ cyclin H (Homo sapiens) (UniProt P51946+P50613); assay: Inhibition of human CDK7/cyclinH/MAT1 at 10 uM after 60 mins by TR-FRET assay; values are per cent of control
[11] = target: RAC-beta serine/threonine-protein kinase (Homo sapiens) (UniProt P31751); assay: Inhibition of human PKBbeta at 10 uM after 60 mins by TR-FRET assay; values are per cent of control
[12] = target: cGMP-dependent protein kinase 1 (Homo sapiens) (UniProt Q13976); assay: Inhibition of human PKG1alpha at 10 uM after 60 mins by TR-FRET assay; values are per cent of control
[13] = test system: Proto-oncogene tyrosine-protein kinase receptor Ret (Homo sapiens), P07949 [V804L]; assay: Inhibition of human Ret V804L mutant at 10 uM after 60 mins by TR-FRET assay; values are per cent of control
[14] = target: Calcium/calmodulin-dependent protein kinase type 1D (Homo sapiens) (UniProt Q8IU85); assay: Inhibition of human CaMK1delta at 10 uM after 60 mins by TR-FRET assay; values are per cent of control
[15] = target: Serine/threonine-protein kinase Chk2 (Homo sapiens) (UniProt O96017); assay: Inhibition of human CHK2 at 10 uM after 60 mins by TR-FRET assay; values are per cent of control
[16] = target: Cyclin-dependent kinase 2/cyclin E (Homo sapiens) (UniProt P24864+P24941+O96020); assay: Inhibition of human CDK2/cyclinE at 10 uM after 60 mins by TR-FRET assay; values are per cent of control
[17] = target: Mitogen-activated protein kinase 1 (Homo sapiens, UniProt P28482); assay: Inhibition of human MAPK1 at 10 uM after 60 mins by TR-FRET assay; conditions: values are per cent of control
[18] = test system: Tyrosine-protein kinase BTK (Homo sapiens), Q06187 [R28H]; assay: Inhibition of human BTK R28H mutant at 10 uM after 60 mins by TR-FRET assay; values are per cent of control
[19] = target: Ephrin type-A receptor 3 (Homo sapiens) (UniProt P29320); assay: Inhibition of human EphA3 at 10 uM after 60 mins by TR-FRET assay; values are per cent of control
[20] = target: Mitogen-activated protein kinase kinase kinase 9 (Homo sapiens) (UniProt P80192); assay: Inhibition of human MLK1 at 10 uM after 60 mins by TR-FRET assay; values are per cent of control
[21] = target: Tyrosine-protein kinase receptor TYRO3 (Homo sapiens) (UniProt Q06418); assay: Inhibition of human Rse at 10 uM after 60 mins by TR-FRET assay; conditions: values are per cent of control
[22] = target: Serine/threonine-protein kinase D2 (Homo sapiens) (UniProt Q9BZL6); assay: Inhibition of human PKD2 at 10 uM after 60 mins by TR-FRET assay; values are per cent of control
[23] = target: Tyrosine-protein kinase Fes/Fps (Homo sapiens) (UniProt P07332); assay: Inhibition of human Fes at 10 uM after 60 mins by TR-FRET assay; values are per cent of control
[24] = target: Protein kinase C iota type (Homo sapiens) (UniProt P41743); assay: Inhibition of human PKCiota at 10 uM after 60 mins by TR-FRET assay; values are per cent of control
[25] = target: CDK9/cyclin T1 (Homo sapiens) (UniProt O60563+P50750); assay: Inhibition of human CDK9/cyclin T1 at 10 uM after 60 mins by TR-FRET assay; values are per cent of control
[26] = target: MAP kinase-activated protein kinase 2 (Homo sapiens) (UniProt P49137); assay: Inhibition of human MAPKAP-K2 at 10 uM after 60 mins by TR-FRET assay; conditions: values are per cent of control
[27] = target: CDK3/cyclin E (Homo sapiens) (UniProt P24864+O96020+Q00526); assay: Inhibition of human CDK3/cyclinE at 10 uM after 60 mins by TR-FRET assay; values are per cent of control
Chain of CDK3/cyclin E (Homo sapiens) (O96020 whole entry, looked up): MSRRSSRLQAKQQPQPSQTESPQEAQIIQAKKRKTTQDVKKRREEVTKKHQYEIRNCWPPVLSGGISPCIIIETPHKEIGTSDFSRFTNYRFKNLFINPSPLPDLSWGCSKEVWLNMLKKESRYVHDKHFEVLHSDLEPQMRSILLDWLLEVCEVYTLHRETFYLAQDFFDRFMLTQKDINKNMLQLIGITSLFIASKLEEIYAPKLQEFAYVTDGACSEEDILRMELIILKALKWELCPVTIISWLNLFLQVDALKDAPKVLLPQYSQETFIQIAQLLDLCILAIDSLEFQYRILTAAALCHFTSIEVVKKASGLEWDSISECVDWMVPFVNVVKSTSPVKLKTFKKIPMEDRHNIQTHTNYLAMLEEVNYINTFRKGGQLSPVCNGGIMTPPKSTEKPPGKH
Chain of CDK3/cyclin E (Homo sapiens) (P24864 whole entry, looked up): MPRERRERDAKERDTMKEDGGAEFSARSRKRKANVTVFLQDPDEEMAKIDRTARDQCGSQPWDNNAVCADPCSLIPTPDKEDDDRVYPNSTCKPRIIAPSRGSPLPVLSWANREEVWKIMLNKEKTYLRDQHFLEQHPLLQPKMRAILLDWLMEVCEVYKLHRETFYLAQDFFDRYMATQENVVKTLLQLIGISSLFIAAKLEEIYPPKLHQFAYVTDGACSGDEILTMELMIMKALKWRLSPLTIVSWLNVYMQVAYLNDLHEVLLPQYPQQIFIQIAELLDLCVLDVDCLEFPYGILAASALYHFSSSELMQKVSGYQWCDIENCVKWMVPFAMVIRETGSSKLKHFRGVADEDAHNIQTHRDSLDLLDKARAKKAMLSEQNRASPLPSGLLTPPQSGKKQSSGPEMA
Chain of CDK3/cyclin E (Homo sapiens) (Q00526 whole entry, looked up): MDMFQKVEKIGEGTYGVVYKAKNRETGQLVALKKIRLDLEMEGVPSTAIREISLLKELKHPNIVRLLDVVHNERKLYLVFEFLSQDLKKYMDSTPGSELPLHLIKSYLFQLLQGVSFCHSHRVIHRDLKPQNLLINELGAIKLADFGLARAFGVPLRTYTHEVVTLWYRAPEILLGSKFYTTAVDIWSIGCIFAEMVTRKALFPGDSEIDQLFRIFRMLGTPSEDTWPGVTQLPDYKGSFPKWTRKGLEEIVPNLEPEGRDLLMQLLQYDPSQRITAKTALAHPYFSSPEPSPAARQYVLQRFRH

Chain of Tyrosine-protein kinase receptor TYRO3 (Homo sapiens) (Q06418 whole entry): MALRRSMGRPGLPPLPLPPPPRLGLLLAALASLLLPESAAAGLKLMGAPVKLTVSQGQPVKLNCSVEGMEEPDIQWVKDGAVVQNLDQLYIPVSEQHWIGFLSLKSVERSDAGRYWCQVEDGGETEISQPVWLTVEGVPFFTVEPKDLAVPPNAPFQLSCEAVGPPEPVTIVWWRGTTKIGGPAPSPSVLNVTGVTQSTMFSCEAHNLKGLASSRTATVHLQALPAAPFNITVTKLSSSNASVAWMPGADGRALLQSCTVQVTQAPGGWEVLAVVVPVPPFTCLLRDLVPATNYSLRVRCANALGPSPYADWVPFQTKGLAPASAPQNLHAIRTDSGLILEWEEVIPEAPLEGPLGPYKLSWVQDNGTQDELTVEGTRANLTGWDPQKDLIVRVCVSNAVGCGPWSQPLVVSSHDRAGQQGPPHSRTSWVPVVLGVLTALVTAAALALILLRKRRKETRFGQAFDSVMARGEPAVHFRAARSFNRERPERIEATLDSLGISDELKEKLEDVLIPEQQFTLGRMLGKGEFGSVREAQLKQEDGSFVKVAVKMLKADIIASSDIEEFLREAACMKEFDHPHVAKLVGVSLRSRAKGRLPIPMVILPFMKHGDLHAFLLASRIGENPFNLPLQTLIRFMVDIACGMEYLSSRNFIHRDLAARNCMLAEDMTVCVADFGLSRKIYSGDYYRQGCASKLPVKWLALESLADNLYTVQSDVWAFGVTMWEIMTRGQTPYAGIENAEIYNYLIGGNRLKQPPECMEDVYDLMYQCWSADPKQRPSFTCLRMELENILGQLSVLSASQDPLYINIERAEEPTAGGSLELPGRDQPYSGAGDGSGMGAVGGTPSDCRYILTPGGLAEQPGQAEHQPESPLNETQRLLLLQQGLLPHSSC
Chain of MAP kinase-activated protein kinase 2 (Homo sapiens) (P49137 whole entry, looked up): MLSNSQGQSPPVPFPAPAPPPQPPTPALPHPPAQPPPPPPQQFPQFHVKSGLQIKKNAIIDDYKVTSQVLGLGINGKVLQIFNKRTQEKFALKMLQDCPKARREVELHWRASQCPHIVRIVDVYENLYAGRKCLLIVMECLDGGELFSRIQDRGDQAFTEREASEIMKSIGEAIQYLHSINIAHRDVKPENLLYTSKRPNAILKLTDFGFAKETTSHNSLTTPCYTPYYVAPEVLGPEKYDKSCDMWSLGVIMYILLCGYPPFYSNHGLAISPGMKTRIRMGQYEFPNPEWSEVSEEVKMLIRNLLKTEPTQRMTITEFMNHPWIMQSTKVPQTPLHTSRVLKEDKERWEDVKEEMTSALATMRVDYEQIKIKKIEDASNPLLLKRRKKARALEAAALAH
Chain of Serine/threonine-protein kinase SIK1 (Homo sapiens) (P57059 whole entry): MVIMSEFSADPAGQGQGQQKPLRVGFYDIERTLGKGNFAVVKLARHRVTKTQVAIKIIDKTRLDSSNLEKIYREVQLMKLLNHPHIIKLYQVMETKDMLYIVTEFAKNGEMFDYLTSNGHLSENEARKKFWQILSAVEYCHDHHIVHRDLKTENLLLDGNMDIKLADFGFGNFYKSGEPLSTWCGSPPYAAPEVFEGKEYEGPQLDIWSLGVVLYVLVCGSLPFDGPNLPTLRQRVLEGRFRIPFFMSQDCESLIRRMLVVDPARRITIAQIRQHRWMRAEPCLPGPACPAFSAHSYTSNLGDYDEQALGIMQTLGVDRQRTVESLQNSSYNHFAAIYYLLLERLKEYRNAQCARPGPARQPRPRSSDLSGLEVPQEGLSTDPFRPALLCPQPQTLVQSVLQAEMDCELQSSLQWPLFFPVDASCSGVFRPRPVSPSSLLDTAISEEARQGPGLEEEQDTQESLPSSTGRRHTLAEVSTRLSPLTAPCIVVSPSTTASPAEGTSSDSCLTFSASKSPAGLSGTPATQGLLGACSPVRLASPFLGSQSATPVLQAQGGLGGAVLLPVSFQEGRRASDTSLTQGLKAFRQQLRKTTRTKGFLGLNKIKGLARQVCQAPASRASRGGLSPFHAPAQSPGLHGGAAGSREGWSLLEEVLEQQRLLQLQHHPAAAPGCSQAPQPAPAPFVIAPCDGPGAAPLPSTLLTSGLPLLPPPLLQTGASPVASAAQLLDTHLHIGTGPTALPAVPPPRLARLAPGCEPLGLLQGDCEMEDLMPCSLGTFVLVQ
Chain of Tyrosine-protein kinase Lck (Homo sapiens) (P06239 2-509 limits assumed): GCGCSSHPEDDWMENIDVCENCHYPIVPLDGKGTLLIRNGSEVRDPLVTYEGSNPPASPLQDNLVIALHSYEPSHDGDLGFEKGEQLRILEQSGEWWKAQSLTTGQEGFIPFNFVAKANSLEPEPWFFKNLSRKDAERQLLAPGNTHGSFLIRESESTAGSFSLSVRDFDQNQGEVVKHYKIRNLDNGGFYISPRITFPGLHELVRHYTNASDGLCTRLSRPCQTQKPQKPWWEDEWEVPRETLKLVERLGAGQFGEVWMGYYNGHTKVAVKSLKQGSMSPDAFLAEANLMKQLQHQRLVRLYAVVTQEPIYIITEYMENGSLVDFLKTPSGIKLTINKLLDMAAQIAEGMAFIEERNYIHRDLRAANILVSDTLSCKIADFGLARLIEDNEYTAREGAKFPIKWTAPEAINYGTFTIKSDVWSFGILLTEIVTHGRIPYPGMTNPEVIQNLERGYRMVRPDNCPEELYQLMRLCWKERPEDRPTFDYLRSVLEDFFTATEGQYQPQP
Chain of Calcium/calmodulin-dependent protein kinase type 1D (Homo sapiens) (Q8IU85 whole entry, looked up): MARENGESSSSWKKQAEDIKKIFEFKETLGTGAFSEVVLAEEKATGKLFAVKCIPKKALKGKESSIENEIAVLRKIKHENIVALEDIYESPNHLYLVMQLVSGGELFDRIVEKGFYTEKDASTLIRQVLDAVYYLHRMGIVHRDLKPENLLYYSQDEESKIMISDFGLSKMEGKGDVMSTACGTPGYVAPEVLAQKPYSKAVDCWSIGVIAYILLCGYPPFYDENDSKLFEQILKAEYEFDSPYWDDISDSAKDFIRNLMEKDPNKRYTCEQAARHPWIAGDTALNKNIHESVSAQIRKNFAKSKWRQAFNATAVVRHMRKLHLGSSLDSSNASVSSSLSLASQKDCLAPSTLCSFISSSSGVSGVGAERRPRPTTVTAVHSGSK
Chain of Tyrosine-protein kinase Fes/Fps (Homo sapiens) (P07332 whole entry): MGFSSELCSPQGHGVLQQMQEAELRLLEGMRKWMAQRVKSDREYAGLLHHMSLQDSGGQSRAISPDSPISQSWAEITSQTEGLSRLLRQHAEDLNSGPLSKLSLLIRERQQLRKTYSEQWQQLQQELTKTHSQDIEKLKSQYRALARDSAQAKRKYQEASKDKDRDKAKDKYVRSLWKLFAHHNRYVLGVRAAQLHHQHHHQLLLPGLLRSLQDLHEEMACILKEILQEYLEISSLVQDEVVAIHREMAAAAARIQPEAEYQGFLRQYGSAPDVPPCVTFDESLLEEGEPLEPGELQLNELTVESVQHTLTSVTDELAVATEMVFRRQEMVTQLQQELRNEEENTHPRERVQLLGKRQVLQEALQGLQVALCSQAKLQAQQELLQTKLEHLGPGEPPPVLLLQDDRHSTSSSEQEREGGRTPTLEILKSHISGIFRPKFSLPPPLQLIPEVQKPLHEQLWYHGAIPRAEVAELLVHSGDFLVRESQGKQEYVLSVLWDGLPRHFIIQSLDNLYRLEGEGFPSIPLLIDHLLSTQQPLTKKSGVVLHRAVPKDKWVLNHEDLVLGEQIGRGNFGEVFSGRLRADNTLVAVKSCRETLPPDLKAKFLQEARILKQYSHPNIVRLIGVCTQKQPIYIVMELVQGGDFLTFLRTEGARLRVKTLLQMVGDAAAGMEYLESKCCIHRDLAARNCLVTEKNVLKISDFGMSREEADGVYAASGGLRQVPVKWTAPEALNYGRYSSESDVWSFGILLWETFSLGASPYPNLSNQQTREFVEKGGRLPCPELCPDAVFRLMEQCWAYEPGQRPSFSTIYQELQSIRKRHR

Compound: S=c1[nH]nc(-c2ccncc2)n1-c1ccc2ccccc2c1
- residual activity [1]: 117%
- residual activity [2]: 96%
- residual activity [3]: 119%
- residual activity [4]: 107%
- residual activity [5]: 85%
- residual activity [6]: 100%
- residual activity [7]: 76%
- residual activity [8]: 106%
- residual activity [9]: 96%
- residual activity [10]: 113%
- residual activity [11]: 110%
- residual activity [12]: 108%
- residual activity [13]: 109%
- residual activity [14]: 104%
- residual activity [15]: 116%
- residual activity [16]: 108%
- residual activity [17]: 109%
- residual activity [18]: 113%
- residual activity [19]: 90%
- residual activity [20]: 109%
- residual activity [21]: 116%
- residual activity [22]: 110%
- residual activity [23]: 97%
- residual activity [24]: 98%
- residual activity [25]: 110%
- residual activity [26]: 106%
- residual activity [27]: 94%
